Results on 34 molecules are retold here after BindingDB's records for doi:10.7270/Q2Q52N1X (Vanderbilt Screening Center for GPCRs, Ion Channels and …, 2009).

This experiment concerns the target T1, Solute carrier family 12 member 5 (Homo sapiens, UniProt Q9H2X9).
T1 sequence (Q9H2X9 whole entry): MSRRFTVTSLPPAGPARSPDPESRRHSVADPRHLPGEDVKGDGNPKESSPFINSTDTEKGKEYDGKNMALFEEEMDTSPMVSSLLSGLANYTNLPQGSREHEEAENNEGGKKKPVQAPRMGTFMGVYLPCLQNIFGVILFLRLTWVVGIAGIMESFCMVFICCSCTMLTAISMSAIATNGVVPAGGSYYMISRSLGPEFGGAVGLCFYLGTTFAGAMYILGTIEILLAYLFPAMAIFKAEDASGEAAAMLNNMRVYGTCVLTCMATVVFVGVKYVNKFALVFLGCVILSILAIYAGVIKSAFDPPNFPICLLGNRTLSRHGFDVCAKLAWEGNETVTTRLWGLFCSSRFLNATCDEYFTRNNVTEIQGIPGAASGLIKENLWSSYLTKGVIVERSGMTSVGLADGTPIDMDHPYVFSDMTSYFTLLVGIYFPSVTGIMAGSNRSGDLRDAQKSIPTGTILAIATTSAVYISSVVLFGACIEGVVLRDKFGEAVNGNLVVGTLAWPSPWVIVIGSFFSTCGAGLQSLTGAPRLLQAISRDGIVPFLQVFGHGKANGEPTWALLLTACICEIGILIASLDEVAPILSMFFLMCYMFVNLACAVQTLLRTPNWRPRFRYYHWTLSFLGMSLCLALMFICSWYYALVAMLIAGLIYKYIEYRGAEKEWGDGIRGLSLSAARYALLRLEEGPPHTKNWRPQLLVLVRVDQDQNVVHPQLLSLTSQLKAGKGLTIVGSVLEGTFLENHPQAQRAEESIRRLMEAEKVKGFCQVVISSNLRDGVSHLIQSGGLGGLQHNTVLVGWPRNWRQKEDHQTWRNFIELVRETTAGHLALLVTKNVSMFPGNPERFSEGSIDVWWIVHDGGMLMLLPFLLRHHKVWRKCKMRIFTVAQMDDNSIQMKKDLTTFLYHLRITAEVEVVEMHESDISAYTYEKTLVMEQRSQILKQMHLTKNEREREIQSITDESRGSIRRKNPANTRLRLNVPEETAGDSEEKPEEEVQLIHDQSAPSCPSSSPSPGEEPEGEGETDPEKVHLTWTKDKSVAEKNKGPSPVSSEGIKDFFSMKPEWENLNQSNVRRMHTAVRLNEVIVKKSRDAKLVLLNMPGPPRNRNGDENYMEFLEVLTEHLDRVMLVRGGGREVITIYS
As to the kind of experiment: KCC2 modulator potency by thallium flux, dose response, cell-based, HEK293 KCC2, FluoZin-2 fluorescence (AID 1736).

Where [1] appears, read: inactive by the depositor's call.

Molecules are shown by their SMILES.

The term EC50 denotes the concentration that produces a half-maximal response. Read a high EC50 as a need for much substance.

In turn, `CCOc1cc(S(=O)(=O)NCc2ccccc2)ccc1F` [3-ethoxy-4-fluoranyl-N-(phenylmethyl)benzenesulfonamide] came in with an EC50 of 4.68 µM.

With `O=c1cc(CSc2nnnn2-c2ccccc2)nc2scc(-c3ccccc3)n12` [3-phenyl-7-[(1-phenyl-1,2,3,4-tetrazol-5-yl)sulfanylmethyl]-[1,3]thiazolo[3,2-a]pyrimidin-5-one], under setting [1], the EC50 amounted to 4610 µM.

Molecule `COCCNS(=O)(=O)c1ccc(-c2ccc(Cl)cc2)cc1` [4'-chloro-N-(2-methoxyethyl)-4-biphenylsulfonamide] showed an EC50 of 7.84 µM.

The molecule `Cc1c(N=C2Nc3cccc4cccc2c34)c(=O)n(-c2ccccc2)n1C` [4-(2-benzo[cd]indolylamino)-1,5-dimethyl-2-phenyl-3-pyrazolone] came in with an EC50 of 1.89 µM.

Molecule `O=C(Nc1ccc(Cc2ccncc2)cc1)c1ccc(N2CCOCC2)c([N+](=O)[O-])c1` [4-(4-morpholinyl)-3-nitro-N-[4-(4-pyridinylmethyl)phenyl]benzamide] returned an EC50 under setting [1] of 101 µM.

Take `O=C(OCC(=O)N1CCc2ccccc2C1)c1ccc(N2CCOCC2)c([N+](=O)[O-])c1` [4-(4-morpholinyl)-3-nitrobenzoic acid [2-(3,4-dihydro-1H-isoquinolin-2-yl)-2-oxoethyl] ester]: the EC50 came to 5.9 µM.

Molecule `O=C(NC(=S)NNC(=O)c1cnccn1)c1ccc(Cl)cc1` [4-Chloro-N-[N'-(pyrazine-2-carbonyl)-hydrazinocarbothioyl]-benzamide] returned an EC50 of 13 µM.

The molecule `O=C(c1cc(COc2c(F)cccc2F)on1)N1CCC(c2ccncc2)CC1` [4-[1-({5-[(2,6-difluorophenoxy)methyl]isoxazol-3-yl}carbonyl)piperidin-4-yl]pyridine] registered a concentration for a half-maximal effect (EC50) of 12.2 µM.

As for `O=C(Cn1c(-c2ccccc2)noc1=O)N1CCC(Cc2ccccc2)CC1` [4-[2-(4-benzylpiperidin-1-yl)-2-oxoethyl]-3-phenyl-1,2,4-oxadiazol-5-one], the EC50 under setting [1] turned out to be 39.6 µM.

Consider `COc1ccc(-c2cc(CCCC(=O)NCCc3ccccc3)no2)cc1` [4-[5-(4-methoxyphenyl)-1,2-oxazol-3-yl]-N-(2-phenylethyl)butanamide], for which the EC50 was found to be 1.84 µM.

As to `CCC(C)(C)n1nnnc1C(c1ccc(O)c(OC)c1)N1CCN(c2nc3ccccc3s2)CC1` (centres undefined) [4-[(1-tert-amyltetrazol-5-yl)-[4-(1,3-benzothiazol-2-yl)piperazino]methyl]-2-methoxy-phenol], the EC50 under setting [1] amounted to 9.05 µM.

In turn, `Cc1n[nH]c(O)c1C(c1ccc(-c2ccc(F)cc2)o1)c1c(C)n[nH]c1O` [4-[[5-(4-fluorophenyl)furan-2-yl]-(3-methyl-5-oxo-1,2-dihydropyrazol-4-yl)methyl]-5-methyl-1,2-dihydropyrazol-3-one] came in with an EC50 of 14.3 µM.

Molecule `CCOc1cc(Br)ccc1S(=O)(=O)NCc1ccccc1` [4-bromanyl-2-ethoxy-N-(phenylmethyl)benzenesulfonamide] returned a concentration for a half-maximal effect (EC50) of 1.36 µM.

In turn, `Cc1nn(-c2ccc(F)cc2)c(C)c1NS(=O)(=O)c1ccc(Cl)cc1` [4-chloranyl-N-[1-(4-fluorophenyl)-3,5-dimethyl-pyrazol-4-yl]benzenesulfonamide] returned an EC50 of 112 µM.

In turn, `O=S(=O)(Nc1nc2ccccc2nc1N1CCN(c2ccccn2)CC1)c1ccc(Cl)cc1` [4-chloranyl-N-[3-(4-pyridin-2-ylpiperazin-1-yl)quinoxalin-2-yl]benzenesulfonamide] displayed an EC50 of 9.37 µM.

Consider `COc1ccc(S(=O)(=O)N(C)CC(=O)N2CCN(Cc3ccccc3)CC2)cc1C` [4-methoxy-N,3-dimethyl-N-[2-oxidanylidene-2-[4-(phenylmethyl)piperazin-1-yl]ethyl]benzenesulfonamide], for which the midpoint of the response, the EC50, lay at 3.52 µM.

In turn, `CC(C)c1onc(C(=O)NCCc2ccccc2)c1[N+](=O)[O-]` [4-nitro-N-(2-phenylethyl)-5-propan-2-yl-1,2-oxazole-3-carboxamide] displayed an EC50 under setting [1] of 20.6 µM.

In turn, `O=C(NCC1CCCN(C(=O)c2cccnc2)C1)c1ccc(-c2ccccc2)cc1` (centres undefined) [4-phenyl-N-[(1-pyridin-3-ylcarbonylpiperidin-3-yl)methyl]benzamide] yielded an EC50 of 0.657 µM.

In turn, `Sc1nnc(C2(c3ccccc3)CCCC2)o1` [5-(1-phenylcyclopentyl)-3H-1,3,4-oxadiazole-2-thione] returned an EC50 of 1.54 µM.

For `Sc1nnc(Cc2c[nH]c3ccccc23)o1` [5-(1H-indol-3-ylmethyl)-1,3,4-oxadiazole-2(3H)-thione], a half-maximal response (EC50) required 3.76 µM.

As for `O=C(OCc1ccccn1)c1ccc(COc2ccccc2Cl)o1` [5-(2-Chloro-phenoxymethyl)-furan-2-carboxylic acid pyridin-2-ylmethyl ester], the EC50 was found to be 6.49 µM.

The molecule `N#Cc1nc(Cc2cccc3ccccc23)oc1NCCN1CCOCC1` [5-(2-Morpholin-4-yl-ethylamino)-2-naphthalen-1-ylmethyl-oxazole-4-carbonitrile] showed an EC50 of 10.3 µM.

For the molecule `COc1cccc(Nc2nnc(S)s2)c1` [5-(3-methoxyanilino)-3H-1,3,4-thiadiazole-2-thione], the response was half-maximal at 2.8 µM (EC50).

`Sc1nnc(COc2ccc(Cl)cc2)o1` [5-(4-Chloro-phenoxymethyl)-3H-[1,3,4]oxadiazole-2-thione] had an EC50 of 4.06 µM.

Consider `N#Cc1nc(-c2cccs2)oc1N1CCN(Cc2ccccc2)CC1` [5-(4-benzyl-1-piperazinyl)-2-(2-thienyl)-1,3-oxazole-4-carbonitrile], for which a half-maximal response (EC50) required 11.7 µM.

In the case of `CCOc1ccc(Nc2nnc(S)s2)cc1` [5-(4-ethoxyanilino)-3H-1,3,4-thiadiazole-2-thione], under setting [1], the midpoint of the response, the EC50, lay at 0.0465 µM.

`N#Cc1nc(Cc2cccc3ccccc23)oc1N1CCOCC1` [5-(4-morpholinyl)-2-(1-naphthalenylmethyl)-4-oxazolecarbonitrile] registered an EC50 of 1.77 µM.

Turning to `O=C(NCC1CCCO1)C(c1cccs1)N(C(=O)c1ccc(-c2ccccc2)[nH]1)C1CCCC1` (centres undefined) [5-Phenyl-1H-pyrrole-2-carboxylic acid cyclopentyl-{[(tetrahydro-furan-2-ylmethyl)-carbamoyl]-thiophen-2-yl-methyl}-amide], the EC50 was 5.57 µM.

As to `Cc1ccc(Cn2nnc3c(=O)[nH]c(C4CCN(S(=O)(=O)c5ccc(F)cc5)CC4)nc32)cc1` [5-[1-(4-fluorophenyl)sulfonylpiperidin-4-yl]-3-[(4-methylphenyl)methyl]-2H-triazolo[4,5-d]pyrimidin-7-one], the EC50 came out at 11.1 µM.

Molecule `Cc1cccc(OCCc2nnc(N)s2)c1C` [5-[2-(2,3-Dimethyl-phenoxy)-ethyl]-[1,3,4]thiadiazol-2-ylamine] yielded an EC50 of 52.3 µM.

As to `Sc1nnc(CCc2ccc(Cl)cc2)o1` [5-[2-(4-chlorophenyl)ethyl]-1,3,4-oxadiazole-2-thiol], the EC50 stood at 2.47 µM.

`O=C(NCc1cccnc1)c1ccc(COc2ccc(Cl)cc2Cl)o1` [5-[(2,4-dichlorophenoxy)methyl]-N-(3-pyridinylmethyl)-2-furancarboxamide] came in with an EC50 of 2060 µM.

As for `O=C(Nc1cccnc1)c1ccc(COc2cc(Cl)ccc2Cl)o1` [5-[(2,5-dichlorophenoxy)methyl]-N-(3-pyridinyl)-2-furancarboxamide], the EC50 was 106 µM.

As for `O=C(NCc1ccc2c(c1)OCO2)c1ccc(COc2cc(Cl)ccc2Cl)o1` [5-[(2,5-dichlorophenoxy)methyl]-N-piperonyl-2-furamide], a half-maximal response (EC50) required 6.51 µM.
